The values that follow come from patent US8822503B2, “2-pyridone compounds” (Taisho Pharmaceutical Co., Ltd, priority 2009, dated 2014).

The test has as its target T1, human liver GK (Homo sapiens, UniProt P35557).
T1 construct: GST (glutathione S-transferase) (N); made in house; host or cells: E. coli
T1 sequence (P35557 1-466 isoform P35557-2): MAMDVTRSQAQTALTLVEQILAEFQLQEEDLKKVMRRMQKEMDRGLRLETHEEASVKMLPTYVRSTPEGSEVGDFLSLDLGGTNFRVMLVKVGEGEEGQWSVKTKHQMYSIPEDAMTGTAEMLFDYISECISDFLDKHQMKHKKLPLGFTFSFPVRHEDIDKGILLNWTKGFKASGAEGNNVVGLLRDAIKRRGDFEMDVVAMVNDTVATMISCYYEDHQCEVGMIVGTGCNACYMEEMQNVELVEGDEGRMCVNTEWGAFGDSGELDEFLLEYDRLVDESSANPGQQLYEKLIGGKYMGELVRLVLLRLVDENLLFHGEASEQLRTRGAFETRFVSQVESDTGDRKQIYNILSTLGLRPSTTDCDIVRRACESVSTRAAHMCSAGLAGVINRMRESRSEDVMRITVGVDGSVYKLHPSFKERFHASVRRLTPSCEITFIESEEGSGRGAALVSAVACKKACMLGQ
Put plainly: GK activation test. The class given is biochemical. As to conditions: test compound concentration needed to activate 50% of maximum activation ability; 4 mM 14C-labeled glucose, 2 mM ATP, room temperature, 20 minutes. In a few lines:
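GST-tagged human liver GK from E. coli (0.24 μg/well) with 4 mM 14C-glucose, 2 mM ATP in Hepes-KOH pH 7.1, KCl, MgCl2, DTT, 1% DMSO, 20 min room temperature. Labeled glucose 6-phosphate captured on anion resin, eluted and counted. EC50 = concentration giving half of maximal activation.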

As to `CC(C)(C)c1ccc(/C(=C\CN2CCCCCC2=O)c2ccc(Cl)c(=O)[nH]2)cc1` [Example 6-6, 1-[(2E)-3-(4-tert-Butylphenyl)-3-(5-chloro-6-oxo-1,6-dihydropyridin-2-yl)prop-2-en-1-yl]azepan-2-one], the EC50 (in general, the concentration giving half of the maximal effect) lay in the range of 0.5 to 3 µM.

`CC(C)(C)c1ccc(/C(=C\CN2CCCS2(=O)=O)c2ccc(Cl)c(=O)[nH]2)cc1` [Example 6-7, 6-[(1E)-1-(4-tert-Butylphenyl)-3-(1,1-dioxido-1,2-thiazolidin-2-yl)prop-1-en-1-yl]-3-chloropyridin-2(1H)-one] yielded an EC50 of 0.5 to 3 µM. The value for `CC(C)(C)c1ccc(/C(=C\CN2C(=O)CCC2=O)c2ccc(Cl)c(=O)[nH]2)cc1` [Example 6-9, 1-[(2E)-3-(4-tert-Butylphenyl)-3-(5-chloro-6-oxo-1,6-dihydropyridin-2-yl)prop-2-en-1-yl]pyrrolidine-2,5-dione] was 0.5 to 3 µM. Turning to `CC(C)(C)c1ccc(/C(=C\COc2ccccc2)c2ccc(Cl)c(=O)[nH]2)cc1` [Example 6-10, 6-[(1E)-1-(4-tert-Butylphenyl)-3-phenoxyprop-1-en-1-yl]-3-chloropyridin-2(1H)-one], the EC50 is 0.5 to 3 µM. Take `CC(C)(C)c1ccc(/C(=C\Cn2ccccc2=O)c2ccc(Cl)c(=O)[nH]2)cc1` [Example 6-11, 6-[(1E)-1-(4-tert-Butylphenyl)-3-(2-oxopyridin-1(2H)-yl)prop-1-en-1-yl]-3-chloropyridin-2(1H)-one]: the EC50 lay in the range of 0.5 to 3 µM. For `CC(C)(C)c1ccc(/C(=C\CCN2CCCS2(=O)=O)c2ccc(Cl)c(=O)[nH]2)cc1` [Example 6-12, 6-[(1E)-1-(4-tert-Butylphenyl)-4-(1,1-dioxide-1,2-thiazolidin-2-yl)but-1-en-1-yl]-3-chloropyridin-2(1H)-one] the value was 0.5 to 3 µM; for `CC(C)(C)c1ccc(/C(=C\CCN2C(=O)CCC2=O)c2ccc(Cl)c(=O)[nH]2)cc1` [Example 6-13, 1-[(3E)-4-(4-tert-Butylphenyl)-4-(5-chloro-6-oxo-1,6-dihydropyridin-2-yl)but-3-en-1-yl]pyrrolidine-2,5-dione], 0.5 to 3 µM. `CC(C)(C)c1ccc(/C(=C\N2CCCC2=O)c2ccc(Cl)c(=O)[nH]2)cc1` [Example 6-14, 6-[(E)-1-(4-tert-Butylphenyl)-2-(2-oxopyrrolidin-1-yl)ethenyl]-3-chloropyridin-2(1H)-one] yielded an EC50 of 0.5 to 3 µM.

In turn, `CC(C)(C)c1ccc(/C(=C\C(=O)N2CCCC2)c2ccc(Cl)c(=O)[nH]2)cc1` [Example 6-15, 6-[(1E)-1-(4-tert-Butylphenyl)-3-oxo-3-(pyrrolidin-1-yl)prop-1-en-1-yl]-3-chloropyridin-2(1H)-one] displayed a concentration giving a half-maximal response (EC50) of 3 to 10 µM. Molecule `CN1CCN(C/C=C(\c2ccc(C(C)(C)C)cc2)c2ccc(Cl)c(=O)[nH]2)C1=O` [Example 6-16, 6-[(1E)-1-(4-tert-Butylphenyl)-3-(3-methyl-2-oxoimidazolidin-1-yl)prop-1-en-1-yl]-3-chloropyridin-2(1H)-one] yielded an EC50 of 0.01 to 0.5 µM. `CC(C)(C)c1ccc(/C(=C\CN2CCCCCCC2=O)c2ccc(Cl)c(=O)[nH]2)cc1` [Example 6-18, 1-[(2E)-3-(4-tert-Butylphenyl)-3-(5-chloro-6-oxo-1,6-dihydropyridin-2-yl)prop-2-en-1-yl]azocan-2-one] returned an EC50 of 3 to 10 µM.

In the case of `CN1CCC(C/C=C(\c2ccc(C(C)(C)C)cc2)c2ccc(Cl)c(=O)[nH]2)C1=O` (centres unmarked) [Example 6-19, 6-[(1E)-1-(4-tert-Butylphenyl)-3-(1-methyl-2-oxopyrrolidin-3-yl)prop-1-en-1-yl]-3-chloropyridin-2(1H)-one], the EC50 lay in the range of 0.5 to 3 µM.

For `O=C1CCCN1C/C=C(\c1ccc(S(=O)(=O)C2CC2)cc1)c1ccc(Cl)c(=O)[nH]1` [Example 6-20, 3-Chloro-6-[(1E)-1-[4-(cyclopropylsulfonyl)phenyl]-3-(2-oxopyrrolidin-1-yl)prop-1-en-1-yl]pyridin-2(1H)-one], the EC50 was in the range of 0.5 to 3 µM.

Regarding `O=C1OCCN1C/C=C(\c1ccc(S(=O)(=O)C2CC2)cc1)c1ccc(Cl)c(=O)[nH]1` [Example 6-21, 3-Chloro-6-[(1E)-1-[4-(cyclopropylsulfonyl)phenyl]-3-(2-oxo-1,3-oxazolidin-3-yl)prop-1-en-1-yl]pyridin-2(1H)-one], the EC50 was 0.5 to 3 µM. For `CC(C)c1ccc(/C(=C\CN2CCOC2=O)c2ccc(Cl)c(=O)[nH]2)cc1` [Example 6-22, 3-Chloro-6-{(1E)-3-(2-oxo-1,3-oxazolidin-3-yl)-1-[4-(propan-2-yl)phenyl]prop-1-en-1-yl}pyridin-2(1H)-one] the value was 0.5 to 3 µM. `CC(C)(C)c1ccc(/C(=C\Cc2nc(=O)o[nH]2)c2ccc(Cl)c(=O)[nH]2)cc1` [Example 6-23, 6-[(1E)-1-(4-tert-Butylphenyl)-3-(5-oxo-2,5-dihydro-1,2,4-oxadiazol-3-yl)prop-1-en-1-yl]-3-chloropyridin-2(1H)-one]: the EC50 is 3 to 10 µM. For `CC(C)(C)c1ccc(/C(=C\CCO)c2ccc(Cl)c(=O)[nH]2)cc1` [Example 6-24, 6-[(1E)-1-(4-tert-Butylphenyl)-4-hydroxybut-1-en-1-yl]-3-chloropyridin-2(1H)-one] the value was 3 to 10 µM; for `CC(C)(C)c1ccc(/C(=C\CCN2CCCC2=O)c2ccc(Cl)c(=O)[nH]2)cc1` [Example 6-27, 6-[(1E)-1-(4-tert-Butylphenyl)-4-(2-oxopyrrolidin-1-yl)but-1-en-1-yl]-3-chloropyridin-2(1H)-one], 0.5 to 3 µM. For `CC(C)(C)c1ccc(/C(=C\Cc2ccccc2)c2ccc(Cl)c(=O)[nH]2)cc1` [Example 6-28, 6-[(1E)-1-(4-tert-Butylphenyl)-3-phenylprop-1-en-1-yl]-3-chloropyridin-2(1H)-one] the value was 0.5 to 3 µM. Regarding `Cn1ccc(=O)n(C/C=C(\c2ccc(C(C)(C)C)cc2)c2ccc(Cl)c(=O)[nH]2)c1=O` [Example 6-31, 3-[(2E)-3-(4-tert-Butylphenyl)-3-(5-chloro-6-oxo-1,6-dihydropyridin-2-yl)prop-2-en-1-yl]-1-methylpyrimidine-2,4(1H, 3H)-dione], the EC50 is 0.5 to 3 µM.

In the case of `CC(C)(C)c1ccc(/C(=C\Cn2cccnc2=O)c2ccc(Cl)c(=O)[nH]2)cc1` [Example 6-32, 1-[(2E)-3-(4-tert-Butylphenyl)-3-(5-chloro-6-oxo-1,6-dihydropyridin-2-yl)prop-2-en-1-yl]pyrimidin-2(1H)-one], the EC50 lay in the range of 3 to 10 µM. In the case of `CC(C)(C)c1ccc(/C(=C\Cn2ncccc2=O)c2ccc(Cl)c(=O)[nH]2)cc1` [Example 6-33, 2-[(2E)-3-(4-tert-Butylphenyl)-3-(5-chloro-6-oxo-1,6-dihydropyridin-2-yl)prop-2-en-1-yl]pyridazin-3(2H)-one], the EC50 is 0.5 to 3 µM. In the case of `CC(C)(C)c1ccc(/C(=C\Cn2cnccc2=O)c2ccc(Cl)c(=O)[nH]2)cc1` [Example 6-34, 3-[(2E)-3-(4-tert-Butylphenyl)-3-(5-chloro-6-oxo-1,6-dihydropyridin-2-yl)prop-2-en-1-yl]pyrimidin-4(3H)-one], the EC50 lay in the range of 0.5 to 3 µM. In turn, `CC(=O)NC/C=C(\c1ccc(C(C)(C)C)cc1)c1ccc(Cl)c(=O)[nH]1` [Example 6-35, N-[(2E)-3-(4-tert-Butylphenyl)-3-(5-chloro-6-oxo-1,6-dihydropyridin-2-yl)prop-2-en-1-yl]acetamide] displayed an EC50 of 3 to 10 µM. `Cc1c[nH]n(C/C=C(\c2ccc(C(C)(C)C)cc2)c2ccc(Cl)c(=O)[nH]2)c1=O` [Example 6-37, 6-[(1E)-1-(4-tert-Butylphenyl)-3-(4-methyl-5-oxo-2,5-dihydro-1H-pyrazol-1-yl)prop-1-en-1-yl]-3-chloropyridin-2(1H)-one] had a half-maximal effective concentration (EC50) of 0.5 to 3 µM.

The molecule `O=c1[nH]c(C(OC2CCCC2)c2ccc(S(=O)(=O)C3CC3)cc2)ccc1C(F)(F)F` (centres unmarked) [Example 7-2, 6-{(Cyclopentyloxy)[4-(cyclopropylsulfonyl)phenyl]methyl}-3-(trifluoromethyl)pyridin-2(1H)-one] yielded an EC50 of 3 to 10 µM.

The molecule `O=c1[nH]c(C(Oc2ccc(F)cc2F)c2ccc(S(=O)(=O)C3CC3)cc2)ccc1C1CC1` (centres unmarked) [Example 7-3, 3-Cyclopropyl-6-[[4-(cyclopropylsulfonyl)phenyl](2,4-difluorophenoxy)methyl]pyridin-2(1H)-one] had an EC50 of 0.01 to 0.5 µM. For the molecule `CC(C)(C)c1ccc(C(SC2CCCC2)c2ccc(Cl)c(=O)[nH]2)cc1` (centres unmarked) [Example 7-4, 6-[(4-tert-Butylphenyl)(cyclopentylsulfanyl)methyl]-3-chloropyridin-2(1H)-one], the EC50 was 0.5 to 3 µM. As to `CC(C)(C)c1ccc(C(NC2CCCC2)c2ccc(Cl)c(=O)[nH]2)cc1` (centres unmarked) [Example 7-5, 6-[(4-tert-Butylphenyl)(cyclopentylamino)methyl]-3-chloropyridin-2(1H)-one], the EC50 is 3 to 10 µM.
